Measurements: patent publication US4226610A, “Herbicidal compounds, preparation thereof and herbicides containing the same” (Meiji Selka Kaisha, Ltd., priority 1978, dated 1980)

How the values were obtained:
[1] = system: water hyacinth; assay: Experiment 6 spray on aquatic plants in concrete pots; assay type: in vivo, Eichhornia crassipes Solms; conditions: 3 months
From the text: (§1) The detail of the assessment made in the following Experiments of the invention was as follows:
(§2) Four months after treatment, evaluation was made for inhibition of reproduction expressed in terms of symbols ranging from (-) to (+++) where (-) means no reproduction, namely complete suppression of reproduction, (±) remarkable suppression of reproduction; (+) considerable suppression of reproduction; (++) medium supprestion of reproduction; and (+++) no suppression of reproduction.
(§3) A paddy field soil was packed in 50 cm. square concrete pots. omodaka (Sagittaria trifolia L.), urikawa (Sagittaria pygmaea Miq.), prog-bit (Hydrocharis dubia) and aginashi (Sagittaria Aginashi Makino) were transplanted; then water was poured onto the soil at 5 cm. depth.
(§4) Further, water hyacinth, greater-duckweed (Spirodela polyrhiza Schleid.) and duckweed (Lemna paucicostata Hegelm) were floated on the water.
(§5) After one month, the compounds of the invention diluted to the prescribed concentrations as indicated in Table 8 were sprayed in an amount of 100 liter per 10 are. As a surfactant, 0.1% of octylphenyl polyoxyethanol was added thereto.
(§6) The killing index (0, no effect; 5, death) after 21 days and 3 months and the reproduction-inhibiting effect (-, no reproduction; +++, maximum reproduction) after 3 months were determined.

[2] = system: yamazakura; assay: Experiment 3 foliar application to naturally growing shrubs; assay type: in vivo, Prunus donarium Sieb. var. spontanae Makino; conditions: after 3 months
Method in brief: (§7)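 Naturally growing shrubs were sprayed on the foliage at 150 liter per 10 are. Plant kill was then scored from 0 to 5 at 1 and 3 months, and reproduction was graded − to +++ at 3 months.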

[3] = system: white clover; assay: Experiment 1 foliar application to naturally growing weeds; assay type: in vivo, Trifolium repens L.; conditions: 4 months
Method in brief: (§8)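 Naturally growing weeds receive a foliar spray of compound at prescribed concentrations, 150 liter per 10 are, containing 0.1% octylphenyl polyoxyethanol. Kill is rated 0 (no effect) to 5 (death) after 21 days. Regrowth is rated (-) to (+++) after 4 months, or 2 months for cockspar grass.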

[4] = system: manna grass; assay: as above; assay type: in vivo, Digitaria adsceudes Henr.; conditions: 2 months
Method in brief: (§9)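 Foliar spray on field weeds at 150 liter per 10 are, compounds at prescribed concentrations plus 0.1% octylphenyl polyoxyethanol. Day 21: killing index 0–5 (5 = death). Reproduction scored (-) to (+++) (- = none): cockspar grass at 2 months, chigaya, azumanezasa and warunasubi at 4 months.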

[5] = system: diatoms; assay: Experiment 7 application to water; assay type: in vivo, Bacillariophyta; design: key: 0: no effect; 5: perfect control
From the text: (§10) A black soil was packed in 50 cm. square concrete pots and water was poured there-onto at 50 cm. in depth. Hornwort (Ceratophyllum demersum L.), stonewort (Chara Braunii Gmel.) and salvinia (Salvinia natans All.) were transplanted and pond scum (Spirogira crassa Kutz) and diatoms (Bacillariophyta) were floated in the water.
(§11) Then, the compounds of the invention were applied dropwise onto the surface of the water so that the prescribed concentrations in the water are obtained as indicated in Table 9.

[6] = system: hornwort; assay: Experiment 7 application to water; assay type: in vivo, Ceratophyllum demersum L.; design: scale not given here
From the text: as §10, §11

[7] = system: greaterduckweed; assay: Experiment 6 spray on aquatic plants in concrete pots; assay type: in vivo, Spirodela polyrhiza Sohleid.; conditions: 3 months
From the text: as §1, §2, §3, §4, §5, §6

[8] = system: omodaka; assay: as above; assay type: in vivo, Sagittaria trifolia L.; conditions: for Reproduction-inhibiting effect: 3 months
From the text: as §1, §2, §3, §4, §5, §6

[9] = system: salvinia; assay: Experiment 7 application to water; assay type: in vivo, Salvinia natans Allioni; design: scale not given here
From the text: as §10, §11

[10] = system: Japanese prickly ash; assay: Experiment 3 foliar application to naturally growing shrubs; assay type: in vivo, Xanthoxylum piperitum DC.
Method in brief: as §7

[11] = system: oak; assay: as above; assay type: in vivo, Quercus serrata Thunb; conditions: after 3 months
Method in brief: as §7

[12] = system: progbit; assay: Experiment 6 spray on aquatic plants in concrete pots; assay type: in vivo, Hydrocharis dubia; conditions: 3 months
From the text: as §1, §2, §3, §4, §5, §6

[13] = system: warunasubi; assay: Experiment 1 foliar application to naturally growing weeds; assay type: in vivo, Solanum carolinensis L.; conditions: 4 months
Method in brief: as §9

[14] = system: chigaya; assay: as above; assay type: in vivo, Imperata cylindrica Beauv.; conditions: 4 months
Method in brief: as §9

[15] = system: kiichigo; assay: Experiment 3 foliar application to naturally growing shrubs; assay type: in vivo, Rubus palmatsu Thunb. forma coptophyllus Makino; conditions: for Reproduction-inhibiting: after 3 months
Method in brief: as §7

[16] = system: pond scum; assay: Experiment 7 application to water; assay type: in vivo, Spirogira crassa Kutz.; design: scale not given here
From the text: as §10, §11

[17] = system: torch azalea; assay: Experiment 3 foliar application to naturally growing shrubs; assay type: in vivo, Rhododendoron Kaempferi Planch.; conditions: after 3 months
Method in brief: as §7

[18] = system: cockspar grass; assay: Experiment 1 foliar application to naturally growing weeds; assay type: in vivo, Echinochloa Crusgalli P. Beauv.; conditions: 2 months
Method in brief: as §9

[19] = system: purple nutsedge; assay: as above; assay type: in vivo, Cyperus rotundus L.; conditions: 4 months
Method in brief: as §8

SMILES: CP(=O)(O)CC[C@H](N)C(=O)O [L-AMPB choline, L-2-Amino-4-methylphosphino-butanoic acid choline]
- Reproduction-inhibiting effect ([1]; 0.05%): ++
- Reproduction-inhibiting effect ([1]; 0.1%): -
- Reproduction-inhibiting effect ([1]; 0.2%): -
- Reproduction-inhibiting ([2]; 0.05%): -
- Reproduction-inhibiting ([2]; 0.1%): -
- Reproduction-inhibiting ([2]; 0.2%): -
- Reproduction-inhibiting effect ([3]; 0.05%): ±
- Reproduction-inhibiting effect ([3]; 0.1%): -
- Reproduction-inhibiting effect ([3]; 0.2%): -
- Reproduction-inhibiting effect ([4]; 0.05%): ±
- Reproduction-inhibiting effect ([4]; 0.1%): -
- Reproduction-inhibiting effect ([4]; 0.2%): -
- controlling effect ([5]; 1 ppm, 3 months): 4
- controlling effect ([5]; 1 ppm, 21 days): 4
- controlling effect ([5]; 3 ppm, 3 months): 5
- controlling effect ([5]; 3 ppm, 21 days): 5
- controlling effect ([5]; 10 ppm, 3 months): 5
- controlling effect ([5]; 10 ppm, 21 days): 5
- controlling effect ([6]; 1 ppm, 3 months): 2
- controlling effect ([6]; 1 ppm, 21 days): 3
- controlling effect ([6]; 3 ppm, 3 months): 5
- controlling effect ([6]; 3 ppm, 21 days): 5
- controlling effect ([6]; 10 ppm, 3 months): 5
- controlling effect ([6]; 10 ppm, 21 days): 5
- Reproduction-inhibiting effect ([7]; 0.05%): -
- Reproduction-inhibiting effect ([7]; 0.1%): -
- Reproduction-inhibiting effect ([7]; 0.2%): -
- Reproduction-inhibiting effect ([8]; 0.05%): +
- Reproduction-inhibiting effect ([8]; 0.1%): -
- Killing index ([8]; 0.1%, 21 days): 4.5
- Reproduction-inhibiting effect ([8]; 0.2%): -
- controlling effect ([9]; 1 ppm, 3 months): 5
- controlling effect ([9]; 1 ppm, 21 days): 4
- controlling effect ([9]; 3 ppm, 3 months): 5
- controlling effect ([9]; 3 ppm, 21 days): 5
- controlling effect ([9]; 10 ppm, 3 months): 5
- controlling effect ([9]; 10 ppm, 21 days): 5
- Killing index ([10]; 0.05%, after 3 months): 4.5
- Reproduction-inhibiting ([10]; 0.05%, after 3 months): ±
- Killing index ([10]; 0.05%, after 30 days): 4.5
- Reproduction-inhibiting ([10]; 0.1%, after 3 months): -
- Reproduction-inhibiting ([10]; 0.2%, after 3 months): -
- Reproduction-inhibiting ([11]; 0.05%): -
- Reproduction-inhibiting ([11]; 0.1%): -
- Reproduction-inhibiting ([11]; 0.2%): -
- Reproduction-inhibiting effect ([12]; 0.05%): +
- Reproduction-inhibiting effect ([12]; 0.1%): -
- Reproduction-inhibiting effect ([12]; 0.2%): -
- Reproduction-inhibiting effect ([13]; 0.05%): ±
- Reproduction-inhibiting effect ([13]; 0.1%): -
- Reproduction-inhibiting effect ([13]; 0.2%): -
- Reproduction-inhibiting effect ([14]; 0.05%): -
- Reproduction-inhibiting effect ([14]; 0.1%): -
- Reproduction-inhibiting effect ([14]; 0.2%): -
- Reproduction-inhibiting ([15]; 0.05%): -
- Killing index ([15]; 0.05%, after 30 days): 4.5
- Reproduction-inhibiting ([15]; 0.1%): -
- Reproduction-inhibiting ([15]; 0.2%): -
- controlling effect ([16]; 1 ppm, 3 months): 4
- controlling effect ([16]; 1 ppm, 21 days): 4
- controlling effect ([16]; 3 ppm, 3 months): 5
- controlling effect ([16]; 3 ppm, 21 days): 5
- controlling effect ([16]; 10 ppm, 3 months): 5
- controlling effect ([16]; 10 ppm, 21 days): 5
- Reproduction-inhibiting ([17]; 0.05%): -
- Reproduction-inhibiting ([17]; 0.1%): -
- Reproduction-inhibiting ([17]; 0.2%): -
- Reproduction-inhibiting effect ([18]; 0.05%): ±
- Reproduction-inhibiting effect ([18]; 0.1%): -
- Reproduction-inhibiting effect ([18]; 0.2%): -
- Reproduction-inhibiting effect ([19]; 0.05%): +
- Reproduction-inhibiting effect ([19]; 0.1%): ±
- Reproduction-inhibiting effect ([19]; 0.2%): -
